From US20090318431A1, “BENZOXAZINONE AND BENZOXAZEPINONE OXAZOLIDINONES AS ANTIBACTERIAL AGENTS” (Pfizer Inc., priority 2006, published 2009)
≈ marks a conversion by molar mass, not a printed value.

Columns and labels:
Format in all cases: cell-based
S. aureus UC-76 SA-1 = assay: in vitro antibacterial activity (MIC), S. aureus; settings: Staphylococcus aureus, UC76, strain UC-76 SA-1, lowest concentration preventing macroscopically visible growth
Source text: (§1) The in vitro antibacterial activity of the compounds of the present invention may be assessed by following procedures recommended in (1) National Committee for Clinical Laboratory Standards (January 2003), Methods for dilution antimicrobial tests for bacteria that grow aerobically, Approved Standard (6th ed), M7-A6, NCCLS, Wayne, Pa.; (2) National Committee for Clinical Laboratory Standards (March 2001), Methods for antimicrobial susceptibility testing of anaerobic bacteria, Approved Standard (5th ed), M11-A4, NCCLS, Wayne, Pa.; (3) National Committee for Clinical Laboratory Standards (Jan. 2003), MIC testing supplemental tables, M100-S13 (for use with M7-A6), NCCLS, Wayne, Pa.; and (4) Murray P R, Baron E J, Jorgensen J H, et al. Manual of Clinical Microbiology (8th ed) Washington, D.C.: American Society for Microbiology Press, 2003. The antibacterial activity can be presented in the form of MIC value. The MIC value is the lowest concentration of drug, which prevented macroscopically visible growth under the conditions of the test.

S. pneumoniae SV1 SP-3 = assay: in vitro antibacterial activity (MIC), S. pneumoniae; settings: Streptococcus pneumoniae, SV1SP3, strain SV1 SP-3, lowest concentration preventing macroscopically visible growth
Source text: as §1

E. faecalis MGH-2 EF 1-1 = assay: in vitro antibacterial activity (MIC), E. faecalis; settings: Enterococcus faecalis, MGH2EF11, strain MGH-2 EF 1-1, lowest concentration preventing macroscopically visible growth
Source text: as §1

MIC (S. aureus UC-76 SA-1) [µg/mL]	MIC (S. pneumoniae SV1 SP-3) [µg/mL]	MIC (E. faecalis MGH-2 EF 1-1) [µg/mL]	Structure (SMILES)
8 (≈ 23 µM)	8 (≈ 23 µM)	8 (≈ 23 µM)	CCC(=O)NC[C@H]1CN(c2ccc3c(c2)CCOC(=O)N3C)C(=O)O1 [Example 21, N-{[(5S)-3-(1-methyl-2-oxo-1,2,4,5-tetrahydro-3,1-benzoxazepin-7-yl)-2-oxo-1,3-oxazolidin-5-yl]methyl}propanamide]
4 (≈ 11.3 µM)	4 (≈ 11.3 µM)	8 (≈ 22.6 µM)	COC(=O)NC[C@H]1CN(c2cc(F)c3c(c2)COC(=O)N3C)C(=O)O1 [Example 12, (S)-methyl (3-(8-fluoro-1-methyl-2-oxo-2,4-dihydro-1H-benzo[d][1,3]oxazin-6-yl)-2-oxooxazolidin-5-yl)methylcarbamate]
8 (≈ 22.9 µM)	8 (≈ 22.9 µM)	8 (≈ 22.9 µM)	COC(=O)NC[C@H]1CN(c2ccc3c(c2)CCOC(=O)N3C)C(=O)O1 [Example 22, methyl [(5S)-3-(1-methyl-2-oxo-1,2,4,5-tetrahydro-3,1-benzoxazepin-7-yl)-2-oxo-1,3-oxazolidin-5-yl]methylcarbamate]
8 (≈ 24 µM)	4 (≈ 12 µM)	8 (≈ 24 µM)	CC(=O)NC[C@H]1CN(c2ccc3c(c2)CCOC(=O)N3C)C(=O)O1 [Example 20, N-{[(5S)-3-(1-methyl-2-oxo-1,2,4,5-tetrahydro-3,1-benzoxazepin-7-yl)-2-oxo-1,3-oxazolidin-5-yl]methyl}acetamide]
4 (≈ 11.4 µM)	4 (≈ 11.4 µM)	4 (≈ 11.4 µM)	CCC(=O)NC[C@H]1CN(c2cc(F)c3c(c2)COC(=O)N3C)C(=O)O1 [Example 11, (S)—N-((3-(8-fluoro-1-methyl-2-oxo-2,4-dihydro-1H-benzo[d][1,3]oxazin-6-yl)-2-oxooxazolidin-5-yl)methyl)propionamide]
16 (≈ 43.8 µM)	8 (≈ 21.9 µM)	16 (≈ 43.8 µM)	CCC(=O)NC[C@H]1CN(c2cc(F)c3c(c2)CCOC(=O)N3C)C(=O)O1 [Example 16, N-{[(5S)-3-(9-fluoro-1-methyl-2-oxo-1,2,4,5-tetrahydro-3,1-benzoxazepin-7-yl)-2-oxo-1,3-oxazolidin-5-yl]methyl}propanamide]
4 (≈ 13.1 µM)	4 (≈ 13.1 µM)	16 (≈ 52.4 µM)	CNC(=O)[C@H]1CN(c2ccc3c(c2)COC(=O)N3C)C(=O)O1 [Example 5, (R)—N-methyl-3-(1-methyl-2-oxo-2,4-dihydro-1H-benzo[d][1,3]oxazin-6-yl)-2-oxooxazolidine-5-carboxamide]
8 (≈ 22.6 µM)	2 (≈ 5.66 µM)	8 (≈ 22.6 µM)	CN1C(=O)OCc2cc(N3C[C@H](CNC(=O)OCF)OC3=O)ccc21 [Example 6, (S)-Fluoromethyl (3-(1-methyl-2-oxo-2,4-dihydro-1H-benzo[d][1,3]oxazin-6-yl)-2-oxooxazolidin-5-yl)methylcarbamate]
4 (≈ 11.9 µM)	4 (≈ 11.9 µM)	4 (≈ 11.9 µM)	COC(=O)NC[C@H]1CN(c2ccc3c(c2)COC(=O)N3C)C(=O)O1 [Example 3, (S)-methyl (3-(1-methyl-2-oxo-2,4-dihydro-1H-benzo[d][1,3]oxazin-6-yl)-2-oxooxazolidin-5-yl)methylcarbamate]
16 (≈ 50.1 µM)	32 (≈ 100 µM)	32 (≈ 100 µM)	CNC(=O)[C@H]1CN(c2ccc3c(c2)CCOC(=O)N3C)C(=O)O1 [Example 19, (5R)—N-methyl-3-(1-methyl-2-oxo-1,2,4,5-tetrahydro-3,1-benzoxazepin-7-yl)-2-oxo-1,3-oxazolidine-5-carboxamide]
8 (≈ 22.8 µM)	4 (≈ 11.4 µM)	8 (≈ 22.8 µM)	CC(=O)NC[C@H]1CN(c2cc(F)c3c(c2)CCOC(=O)N3C)C(=O)O1 [Example 15, N-{[(SS)-3-(9-fluoro-1-methyl-2-oxo-1,2,4,5-tetrahydro-3,1-benzoxazepin-7-yl)-2-oxo-1,3-oxazolidin-5-yl]methyl}acetamide]
16 (≈ 48.6 µM)	16 (≈ 48.6 µM)	32 (≈ 97.2 µM)	CN1C(=O)OCc2cc(N3C[C@H](Cn4ccnn4)OC3=O)ccc21 [Example 7, (R)-6-(5-((1H-1,2,3-triazol-1-yl)methyl)-2-oxooxazolidin-3-yl)-1-methyl-1H-benzo[d][1,3]oxazin-2(4H)-one]
8 (≈ 25.9 µM)	16 (≈ 51.7 µM)	8 (≈ 25.9 µM)	CN1C(=O)OCc2cc(N3C[C@H](C(N)=O)OC3=O)cc(F)c21 [Example 8, (R)-3-(8-fluoro-1-methyl-2-oxo-2,4-dihydro-1H-benzo[d][1,3]oxazin-6-yl)-2-oxooxazolidine-5-carboxamide]
8 (≈ 24.7 µM)	8 (≈ 24.7 µM)	8 (≈ 24.7 µM)	CNC(=O)[C@H]1CN(c2cc(F)c3c(c2)COC(=O)N3C)C(=O)O1 [Example 9, (R)-3-(8-fluoro-1-methyl-2-oxo-2,4-dihydro-1H-benzo[d][1,3]oxazin-6-yl)-N-methyl-2-oxooxazolidine-5-carboxamide]
4 (≈ 12.5 µM)	2 (≈ 6.26 µM)	4 (≈ 12.5 µM)	CC(=O)NC[C@H]1CN(c2ccc3c(c2)COC(=O)N3C)C(=O)O1 [Example 1, (S)—N-((3-(1-methyl-2-oxo-2,4-dihydro-1H-benzo[d][1,3]oxazin-6-yl)-2-oxooxazolidin-5-yl)methyl)acetamide]
2 (≈ 5.93 µM)	2 (≈ 5.93 µM)	4 (≈ 11.9 µM)	CC(=O)NC[C@H]1CN(c2cc(F)c3c(c2)COC(=O)N3C)C(=O)O1 [Example 10, (S)—N-((3-(8-fluoro-1-methyl-2-oxo-2,4-dihydro-1H-benzo[d][1,3]oxazin-6-yl)-2-oxooxazolidin-5-yl)methyl)acetamide]
4 (≈ 13.7 µM)	4 (≈ 13.7 µM)	16 (≈ 54.9 µM)	CN1C(=O)OCc2cc(N3C[C@H](C(N)=O)OC3=O)ccc21 [Example 4, (R)-3-(1-methyl-2-oxo-2,4-dihydro-1H-benzo[d][1,3]oxazin-6-yl)-2-oxooxazolidine-5-carboxamide]
8 (≈ 24 µM)	4 (≈ 12 µM)	8 (≈ 24 µM)	CCC(=O)NC[C@H]1CN(c2ccc3c(c2)COC(=O)N3C)C(=O)O1 [Example 2, (S)—N-((3-(1-methyl-2-oxo-2,4-dihydro-1H-benzo[d][1,3]oxazin-6-yl)-2-oxooxazolidin-5-yl)methyl)propionamide]
16 (≈ 43.6 µM)	8 (≈ 21.8 µM)	16 (≈ 43.6 µM)	COC(=O)NC[C@H]1CN(c2cc(F)c3c(c2)CCOC(=O)N3C)C(=O)O1 [Example 17, methyl [(5S)-3-(9-fluoro-1-methyl-2-oxo-1,2,4,5-tetrahydro-3,1-benzoxazepin-7-yl)-2-oxo-1,3-oxazolidin-5-yl]methylcarbamate]
16 (≈ 52.4 µM)	32 (≈ 105 µM)	32 (≈ 105 µM)	CN1C(=O)OCCc2cc(N3C[C@H](C(N)=O)OC3=O)ccc21 [Example 18, (5R)-3-(1-methyl-2-oxo-1,2,4,5-tetrahydro-3,1-benzoxazepin-7-yl)-2-oxo-1,3-oxazolidine-5-carboxamide]
